SMILES strings stand for the structures. Where a SMILES comes first, the peptide text is derived from it. Bridges are numbered along the chain shown (N, C = ends).

The values below come from patent US20260207702A1, “USE OF AVPR1A AGONISTS” (Viage Therapeutics Inc., priority 2022, published 2026).

Data set [1] deals with healthy subjects. The following applies: in vivo.
Protocol: A Phase 1a/1b, randomized, placebo-controlled, crossover study with the peptide [sequence] (SEQ ID NO: 1) in healthy subjects was performed. The study population included men and women in good general health.
A single ascending dose (SAD) group included four cohorts receiving 60 mg/day (cohorts SAD1 and SAD2), 180 mg/day (cohort SAD3), or 540 mg/day (cohort SAD4) of the peptide or placebo. […] All doses were administered orally. […] Seven days after the end of dosing, this group was then switched to receiving placebo once a day for seven days, followed by another 24-hour period of sleep deprivation. then crossing to 540 mg of peptide once a day for 7 days. In another group (n=7, with one participant withdrawing after initiation for personal reasons), the inverse dose regimen was used, with participants starting with placebo and the crossing over to 540 mg of peptide once a day.
For data set [2], the system named is mouse. Description: Mouse tail suspension test with felypressin (Example 5). It is filed as in vivo. How it is done:
The effect of orally administered felypressin, a selective AVPR1A agonist, on antidepressant activity in the mouse tail suspension test was evaluated. Felypressin at 0.03 mg/kg, 0.1 mg/kg, and 0.3 mg/kg was compared to the peptide […] (SEQ ID NO: 1) at 0.3 mg/kg (n=6 per group). The effect of orally administered felypressin (0.1 mg/kg) was also compared to the effect of orally administered felypressin (0.1 mg/kg) plus the AVPR1A/AVPR2 inhibitor conivaptan (3 mg/kg) (n=7 per group).

In data set [3] the test system is mouse. Description: Tail suspension test (TST) with vasopressin receptor inhibitors (Example 1). It is filed as in vivo. From the text:
NO: 1) is either AVPR1A or AVPR2 (FIGS. 1-2).

Data set [4] relates to mouse. In words: Mouse tail suspension test with desmopressin (Example 6). It is filed as in vivo. The following applies: oral desmopressin 0.03, 0.1, 0.3, 1.0 mg/kg vs felypressin 0.1 mg/kg. The protocol:
Desmopressin at 0.03 mg/kg, 0.1 mg/kg, and 0.3 mg/kg was compared to felypressin at 0.1 mg/kg (n=6 per group) in a first study. Desmopressin at 0.1 mg/kg, 0.3 mg/kg, and 1.0 mg/kg was compared to felypressin at 0.1 mg/kg (n=6 per group) in a first study.

In the case of `CC(C)C[C@H](N)C(=O)N[C@@H](CO)C(=O)N[C@@H](CO)C(=O)N[C@H](C(=O)N[C@@H](CCC(N)=O)C(=O)N[C@@H](C)C(=O)N[C@@H](CCC(N)=O)C(=O)N[C@@H](CCC(N)=O)C(=O)N[C@@H](CO)C(=O)N[C@@H](Cc1ccc(O)cc1)C(=O)O)[C@@H](C)O` [LSSTQAQQSY (SEQ ID NO: 1), LSSTQAQQSY] (H-LSSTQAQQSY-OH; N-terminus and C-terminus assumed), the “Vital signs, electrocardiography (ECG) data, and physical examinations” value in data set [1] was “normal”.
Consider `Cc1nc2c([nH]1)-c1ccccc1N(C(=O)c1ccc(NC(=O)c3ccccc3-c3ccccc3)cc1)CC2` [conivaptan], for which the “Blocking of felypressin activity in the tail suspension test” value in data set [2] (oral felypressin 0.1 mg/kg plus conivaptan 3 mg/kg) is “blocks”. Besides, the “Blocking of LSSTQAQQSY (SEQ ID NO: 1) activity in a tail suspension test (reduced TST immobility)” value is listed as “blocks” in data set [3] (low doses of inhibitor) and “blocks” in data set [3] (mouse, in vivo).
In the case of `NC(=O)CC[C@@H]1NC(=O)[C@H](Cc2ccccc2)NC(=O)[C@H](Cc2ccc(O)cc2)NC(=O)CCSSC[C@@H](C(=O)N2CCC[C@H]2C(=O)N[C@H](CCCN=C(N)N)C(=O)NCC(N)=O)NC(=O)[C@H](CC(N)=O)NC1=O` [desmopressin, 1-desamino-8-D-arginyl vasopressin], in data set [4], the “Antidepressant activity in the mouse tail suspension test, compared to felypressin” value was “less of an effect than felypressin”.
As to `NCCCC[C@H](NC(=O)[C@@H]1CCCN1C(=O)[C@@H]1CSSC[C@H](N)C(=O)N[C@@H](Cc2ccccc2)C(=O)N[C@@H](Cc2ccccc2)C(=O)N[C@@H](CCC(N)=O)C(=O)N[C@@H](CC(N)=O)C(=O)N1)C(=O)NCC(N)=O` [felypressin] (H-CFFQNCPKG-NH2; disulfide 1-6), in data set [2] (orally administered, 0.03, 0.1 and 0.3 mg/kg), the “Antidepressant activity in the mouse tail suspension test” value is “induces an antidepressant effect”.
As for `COc1ccc(S(=O)(=O)N2C(=O)[C@@](c3ccccc3OC)(N3C[C@H](O)C[C@H]3C(=O)N(C)C)c3cc(Cl)ccc32)c(OC)c1` [nelivaptan], the “Blocking of LSSTQAQQSY (SEQ ID NO: 1) activity in a tail suspension test (reduced TST immobility)” value in data set [3] (mouse, in vivo) is listed as “blocks”.
Still for that read-out and setting: to `Cc1ccccc1C(=O)Nc1ccc(C(=O)N2CCCC(O)c3cc(Cl)ccc32)c(C)c1` (centres unmarked) [tolvaptan] belongs “does not block”.
